Laboratory results taken from patent publication US12448388B2, “PRMT5 inhibitors and uses thereof” (Gilead Sciences, Inc., priority 2023, dated 2025).
Like-named read-outs stand apart in the source and are kept apart here.

What was measured:
[1] = system: HCT116 MTAP-deleted cell lines; assay: Cell viability assay (CellTiter-Glo, 7 days), HCT116 MTAP-deleted; format: cell-based; details: for Selectivity: HCT116 WT CC50 versus HCT116 MTAP^del CC50; for plasma-adjusted CC50 (paCC50): paCC50 = CC50-HCT116-MTAP^del * (% free CCM/% free human plasma); for CC50: Homo sapiens, HCT116 MTAP-deleted
Procedure, shortened: (§1)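 Each PRMT5 inhibitor was tested as a dose response alongside tool compounds on the same plate. Incubation ran 7 days at 37 °C under 5% CO2, after which CellTiter-Glo luminescence was recorded and CC50 calculated.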

[2] = Cell viability assay (CellTiter-Glo, 7 days), HCT116 WT; format: cell-based; details: human, HCT116 WT cells, 7 days of treatment, CTG
Procedure, shortened: as §1

[3] = Pharmacokinetics in cassette in male Sprague-Dawley rats for Kp measurement; format: in vivo; details: 1 mg/kg, intravenous
Method: E.1 Test Animal: Male Sprague-Dawley Rats (225-300 g) with Indwelling Bilateral Jugular Vain Cannula (JVC/JVC) or Single Jugular Vein Cannula (JVC)
E.2 Pharmaceutical Formulation and Administration
Test compound was dissolved in the vehicle of 10% DMSO, 10% ethanol, 40% polyethylene glycol 300, and 40% propylene glycol to get 1 mg/mL test compound solution. The compound was administered by intravenous administration at a dose of 1 mL/kg. Fasting was not required.
• Anticoagulant: K2EDTA • Volume: approximately 225 μL blood at each bleed • Jugula vein via syringe and needle or another method (non-terminal samples) or exsanguination (cardiac puncture) under isoflurane (or CO2 inhalation if isoflurane is unavailable) anesthesia (terminal time points). Blood samples were collected into K2EDTA tubes • Tissue collection and processing: following the terminal blood collection, the brain and CSF were collected from each animal.

[4] = Hepatocyte stability assay, human; format: in vitro ADME; details: human hepatocytes, 1 μM
Method: BioreclamationIVT (Baltimore, MD) provided the cryopreserved hepatocytes, hepatocyte thawing (HT) medium, and Krebs-Henseleit buffer (KHB) medium. The stock solution concentration was 1 M in DMSO and was then diluted further in acetonitrile/water (1:1 v/v). All other chemicals were purchased from Sigma-Aldrich (St. Louis, MO) or Thermo Fisher Scientific (Waltham, MA).
The quench solution used to stop reactions in the hepatocyte incubations was comprised of 100% (v/v) acetonitrile. Internal Standard/Quench (IS/Q) solution used to stop reactions with the positive control also contained 200 nM Labetalol.
Metabolic Stability in Cryopreserved Hepatocytes: Test compounds, or the positive control metabolic substrate, was incubated in suspensions of cryopreserved hepatocytes at a final concentration of 1 μM. Vials containing cryopreserved hepatocytes were removed from liquid nitrogen and immediately immersed in a 37° C. water bath. The vials were swirled gently until the contents had thawed. They were then immediately emptied into 48 mL of pre-warmed thawing medium in a 50 mL conical tube. Cells remaining in the vial were re-suspended with 1.0 mL of pre-warmed thawing medium and added to the conical tube. The tube was capped and then gently inverted several times to re-suspend the hepatocytes. The cell suspension was centrifuged at 500×g for 10 minutes at room temperature and the supernatant discarded. The cell pellet was loosened by gently swirling the centrifuge tube. Non-supplemented KHB medium was added to obtain the appropriate target cell density. The viabilities of all cell preparations were ≥85%, assessed by Trypan blue dye exclusion.
For incubations, aliquots of hepatocyte suspension (250 μL containing a cell concentration of 2×10^6 cells/mL) were added to 250 μL of 2 μM substrate (test compound or positive control) in supplemented KHB in duplicate wells in a 24-well plate. Final concentration in the incubations were 1×10^6 cells/mL and 1 μM substrate. A cell-free control incubation (KHB only) was also included. The incubations were carried out with gentle shaking in a 37° C. incubator under a humid atmosphere of 95% air/5% CO2 (v/v). Aliquots (100 μL) were removed after 0, 1, 3, and 6 hours and added to 200 μL quenching solution. The samples were then placed on a shaker for 10 min followed by centrifugation at 3000×g for 20 min. The supernatant was transferred to a new plate and diluted with 100 μL of water to reduce the organic content and then placed on a shaker for 10 mins. Samples were injected and analyzed with methods described below.
Liquid Chromatography: Quantification of positive control and test compound was performed by analyte/internal standard peak area ratios (PAR) measured on a Thermo Scientific™ Q Exactive™ Hybrid Quadrupole-Orbitrap Mass Spectrometer MS/MS with an electrospray interface operating in positive ion mode. The mass spectrometer was coupled to a Dionex Ultimate® 3000 HPLC system. Samples (10 μL aliquots) were injected with a Leap Technologies HTC PAL autosampler. For positive control, the column used was a Thermo Scientific™ Hypersil GOLD™ HPLC column ([…], 50×2.1 mm). Mobile phase A consisted of 95% (v/v) water, 5% (v/v) acetonitrile, and contained 0.1% (v/v) formic acid (FA). Mobile phase B consisted of 95% (v/v) acetonitrile, 5% (v/v) water, and contained 0.1% (v/v) FA. Elution was achieved, at a flow rate of 0.5 mL/min, by a series of linear gradients: initial condition was 5% B at 0 min, isocratic for 20 seconds; then linear gradient to 95% B over 90 seconds, followed by isocratic for 60 seconds at 95% B, and re-equilibrated to initial conditions over 70 seconds.
Metabolic stabilities of positive control and test compound were determined by measuring the rates of disappearance of the parent with time by determining the % of parent remaining at time t (Ct) {Obach 1997}.
Data (% of parent remaining) were plotted on a semi-log scale and fitted using an exponential fit: […]

[5] = HCT-116, * Calculated using Low throughput hEQDS
[6] = HCT-116, 168 h, 7 days of treatment, CTG, read-out: CC50-HCT116-MTAP^del
[7] = HCT-116, cell viability, class symbols, read-out: CC50
[8] = brain Kp = [brain]/[plasma], rat, read-out: Rat brain Kp
[9] = brain Kpu,u = Kp * (plasma free/rat brain free), read-out: Rat brain Kpu,u
[10] = HCT-116, cell viability assay, class symbols, read-out: CC50

With `C[C@H]1CN(C(=O)c2cc3c(cc2F)nc(N)c2cncn23)[C@H]2c3ccc(C(F)(F)F)cc3C[C@H]2O1` (single isomer, unassigned) [Ff-81] the Selectivity [1] was 71, the plasma-adjusted CC50 (paCC50) [1, 5] was 591 nM and the CC50 [1, 6] was 19 nM. It also gave a CC50 [1, 7] of under 100 nM, a CC50 at 7 days [2] of 1350 nM and a Kp [3, 8] of 0.17. For the same compound, the Kp [3, 9] was 0.04 and the “Human Predicted Hepatocyte CL” value [4] was 3 mL/min/kg.
With `Nc1nc2cc(F)c(C(=O)N3CCO[C@@H]4Cc5cc(C(F)(F)F)ccc5[C@@H]43)cc2n2cncc12` (single isomer, unassigned) [Ff-82] the Selectivity [1] was 77, the plasma-adjusted CC50 (paCC50) ([1]; HCT-116) was 408 nM and the CC50 [1, 6] was 27 nM. For the same compound, the CC50 [1, 7] was under 100 nM, the CC50 at 7 days [2] was 2070 nM and the Kp [3, 8] was 0.15. The Kp [3, 9] was 0.02 and the “Human Predicted Hepatocyte CL” value [4] was 4.33 mL/min/kg.
In the case of `C[C@H]1CN(C(=O)c2cc3c(cc2F)nc(N)c2cncn23)[C@H]2c3cc(F)c(C(F)F)cc3C[C@H]2O1` (single isomer, unassigned) [Ff-173], the Selectivity [1] is reported as 64, the plasma-adjusted CC50 (paCC50) ([1]; HCT-116) is reported as 1160 nM and the CC50 [1, 6] is reported as 35 nM. It also gave a CC50 [1, 7] of under 100 nM, a CC50 at 7 days [2] of 2250 nM and a Kp [3, 8] of 0.12. The Kp [3, 9] was 0.03 and the “Human Predicted Hepatocyte CL” value [4] was 3 mL/min/kg.
For `C[C@@H]1CN(C(=O)c2cc3c(cc2F)nc(N)c2cncn23)[C@H]2c3ccc(OC(F)(F)F)cc3C[C@H]2O1` (single isomer, unassigned) [Ff-183], the Selectivity [1] was 57, the plasma-adjusted CC50 (paCC50) ([1]; HCT-116) was 257 nM and the CC50 [1, 6] was 15 nM. The CC50 [1, 7] was under 100 nM, the CC50 at 7 days [2] was 853 nM and the Kp [3, 8] was 0.41. The Kp [3, 9] was 0.06 and the “Human Predicted Hepatocyte CL” value [4] was 3 mL/min/kg.
In the case of `C[C@@H]1CN(C(=O)c2cc3c(cc2F)nc(N)c2cncn23)[C@H]2c3cc(F)c(OC(F)(F)F)cc3C[C@H]2O1` (single isomer, unassigned) [Ff-197], the Selectivity [1] is reported as 47, the plasma-adjusted CC50 (paCC50) ([1]; HCT-116) is reported as 217 nM and the CC50 [1, 6] is reported as 15 nM. It also gave a CC50 [1, 7] of under 100 nM, a CC50 at 7 days [2] of 712 nM and a Kp [3, 8] of 0.22. The Kp [3, 9] was 0.06 and the “Human Predicted Hepatocyte CL” value [4] was 4.17 mL/min/kg.
Work on `Nc1nc2cnc(C(=O)N3CC[C@H]4C[C@@H]3c3c(F)cc(C(F)(F)F)cc3O4)cc2n2cncc12` (single isomer, unassigned) [Ff-694] yielded a Selectivity [1] of 72, a plasma-adjusted CC50 (paCC50) ([1]; HCT-116) of 120 nM and a CC50 [1, 6] of 10 nM. The CC50 at 7 days [2] was 723 nM, the Kp [3, 8] was 0.29 and the “Human Predicted Hepatocyte CL” value [4] was 3.5 mL/min/kg.
`Nc1nc2cnc(C(=O)N3CCC[C@@H]4Oc5cc(C(F)(F)F)cc(F)c5[C@@H]43)cc2n2cncc12` (single isomer, unassigned) [Fg-53] gave a Selectivity [1] of 84, a plasma-adjusted CC50 (paCC50) [1, 5] of 139 nM and a CC50 [1, 6] of 6 nM. For the same compound, the CC50 [1, 10] was under 100 nM, the CC50 at 7 days [2] was 503 nM and the Kp [3, 8] was 0.29. The Kp [3, 9] was 0.05 and the “Human Predicted Hepatocyte CL” value [4] was 2.83 mL/min/kg.
`Nc1nc2cnc(C(=O)N3CCC[C@@H]4Oc5cc(OC(F)(F)F)cc(F)c5[C@@H]43)cc2n2cncc12` (single isomer, unassigned) [Fg-55] gave a Selectivity [1] of 89, a plasma-adjusted CC50 (paCC50) [1, 5] of 190 nM and a CC50 [1, 6] of 9 nM. The CC50 [1, 10] was under 100 nM, the CC50 at 7 days [2] was 799 nM and the Kp [3, 8] was 0.2. For the same compound, the Kp [3, 9] was 0.05 and the “Human Predicted Hepatocyte CL” value [4] was 4 mL/min/kg.
For `Nc1nc2cc(F)c(C(=O)N3CCC[C@@H]4Oc5cc(C(F)(F)F)ccc5[C@@H]43)cc2n2cncc12` [Ff-104, (4-amino-7-fluoroimidazo[1,5-a]quinoxalin-8-yl)((4aS,9bS)-7-(trifluoromethyl)-3,4,4a,9b-tetrahydrobenzofuro[3,2-b]pyridin-1(2H)-yl)methanone], the Selectivity [1] was 94, the plasma-adjusted CC50 (paCC50) [1, 5] was 139 nM and the CC50 [1, 6] was 5 nM. It also gave a CC50 [1, 7] of under 100 nM, a CC50 at 7 days [2] of 470 nM and a Kp [3, 8] of 0.39. For the same compound, the Kp [3, 9] was 0.07 and the “Human Predicted Hepatocyte CL” value [4] was 8.3 mL/min/kg.
In the case of `Nc1nc2cnc(C(=O)N3CC4(CC4)C[C@@H]4Oc5cc(C(F)(F)F)ccc5[C@@H]43)cc2n2cncc12` [Ff-648, (4-aminoimidazo[1,5-a]pyrido[3,4-e]pyrazin-8-yl)((4aS,9bS)-7-(trifluoromethyl)-4a,9b-dihydro-2H-spiro[benzofuro[3,2-b]pyridine-3,1′-cyclopropan]-1(4H)-yl)methanone], the Selectivity [1] is reported as 72, the plasma-adjusted CC50 (paCC50) ([1]; HCT-116) is reported as 262 nM and the CC50 [1, 6] is reported as 9 nM. The CC50 [1, 10] was under 100 nM, the CC50 at 7 days [2] was 650 nM and the “Human Predicted Hepatocyte CL” value [4] was 5.67 mL/min/kg.
With `Nc1nc2cnc(C(=O)N3CC[C@H]4C[C@@H]3c3ccc(C(F)(F)F)c(F)c3O4)cc2n2cncc12` [Ff-684, (4-aminoimidazo[1,5-a]pyrido[3,4-e]pyrazin-8-yl)((2S,6R)-10-fluoro-9-(trifluoromethyl)-3,4-dihydro-2H-2,6-methanobenzo[b][1,5]oxazocin-5(6H)-yl)methanone] the Selectivity [1] was 93, the plasma-adjusted CC50 (paCC50) ([1]; HCT-116) was 465 nM and the CC50 [1, 6] was 14 nM. For the same compound, the CC50 [1, 10] was under 100 nM, the CC50 at 7 days [2] was 1310 nM and the “Human Predicted Hepatocyte CL” value [4] was 2.67 mL/min/kg.
Compound `Nc1nc2cnc(C(=O)N3CC[C@H]4C[C@@H]3c3ccc(OC(F)(F)F)cc3O4)cc2n2cncc12` [Ff-685, (4-aminoimidazo[1,5-a]pyrido[3,4-e]pyrazin-8-yl)((2S,6R)-9-(trifluoromethoxy)-3,4-dihydro-2H-2,6-methanobenzo[b][1,5]oxazocin-5(6H)-yl)methanone] has a Selectivity [1] of 71, a plasma-adjusted CC50 (paCC50) ([1]; HCT-116) of 357 nM and a CC50 [1, 6] of 16 nM. For the same compound, the CC50 [1, 10] was under 100 nM, the CC50 at 7 days [2] was 1130 nM and the “Human Predicted Hepatocyte CL” value [4] was 4.83 mL/min/kg.
Compound `[2H]C1([2H])CC[C@@H]2Oc3cc(C(F)(F)F)ccc3[C@@H]2N1C(=O)c1cc2c(cn1)nc(N)c1cncn12` [Fg-60, (4-aminoimidazo[1,5-a]pyrido[3,4-e]pyrazin-8-yl)((4aS,9bS)-7-(trifluoromethyl)-3,4,4a,9b-tetrahydrobenzofuro[3,2-b]pyridin-1(2H)-yl-2,2-d2)methanone] has a Selectivity [1] of 98, a CC50 [1, 6] of 7 nM and a CC50 [1, 10] of under 100 nM. The CC50 at 7 days [2] was 683 nM and the “Human Predicted Hepatocyte CL” value [4] was 3.5 mL/min/kg.
